Source: publication PMC12067741, “Inhibition of SOD1 trimerization is a novel drug target for ALS disease” (Translational Neurodegeneration, 2025)
“Also recorded” adds a separate entry of the source. Read-outs that look alike come from different tables or passages of the source.

Key:
[1] = Metabolic stability in liver microsomes; format: in vitro ADME; conditions: cynomolgus monkey liver microsomes
[2] = system: human normal fibroblast; experiment: Cell viability (MTT); format: cell-based; conditions: 48 hr
Protocol: (§1) Cells were incubated with 0.5 mg/mL of MTT solution (475989; Merck, Darmstadt, Germany) for 4 h at 37 °C. After removing excess solution and washing with PBS, the precipitated materials were dissolved in 200 μL DMSO and quantified by measuring absorbance at 540 nm.
(§2) Fig. S1. Optimized inhibitor reduces SOD1 aggregation. a, Mutant SOD1s induced WT-SOD1 aggregation. Testing the selected chemicals to check the inhibitory effect on SOD1 aggregation .HEK293 cells were transfected with MT-SOD1 vectors (A4V, G 93 A) and treated with selected chemicals ([…]). After incubation, transfected cells were harvested with TNNI buffer and fixed with 0.04% glutaraldehyde (Glu) for 30min. Samples were separated using SDS-PAGE. b-c, PRG-A-04 inhibited SOD1 inclusions in SK-N-SH cells. […] After incubation, cells were fixed with 4 % PFA and observed under the fluorescence microscope. (c) Cells with SOD1 inclusions (white arrows; strong intensity of SOD1) were counted by photomicrographs and the percentages were shown with standard deviation (SD). For cell counting, ten fluorescence images were randomly selected. […]
(§3) show cytotoxicity. To know the toxic effect of PRG-A-04 , human normal fibroblast (f) and neuron cells (g) were incubated with PRG -A-04 for 48 hr dose dependently and measured the viability through MTT assay .“Con” means Dimethyl sulfoxide (DMSO) -treated control . […]

[3] = system: SK-N-SH cells; experiment: Cell viability (MTT); format: cell-based; conditions: neuron cell line, 48 hr
Protocol: as §1, §2, §3

[4] = mouse, in vivo, iv, 1 mg/kg
[5] = Metabolic stability in liver microsomes; format: in vitro ADME; conditions: beagle dog liver microsomes
[6] = system: MT-SOD1 inclusions in SK-N-SH cells; experiment: SOD1 inclusions by immunofluorescence in SK-N-SH cells; format: cell-based; conditions: SK-N-SH cells expressing MT-SOD1, 24 h
Protocol: Cells on coverslips were washed with PBS, fixed with 4% PFA for 30 min at room temperature and then permeabilized in 0.1% Triton X-100/PBS for 10 min. After incubation in blocking solution (goat serum diluted 1:200 in PBS) for 1 h, cells were incubated with primary antibodies in blocking buffer for overnight at 4 °C. Finally, the cells were incubated with FITC- or Rhodamine-conjugated secondary antibody at 4 °C for 4 h. The nucleus was stained with 4, 6-diamidino-2-phenylindole and the endoplasmic reticulum (ER) was stained using the ER-Tracker Red dye for 10 min. Cells were washed three times with PBS, then the coverslips were mounted with the mounting solution (H-5501; Vector Laboratories, Burlingame, CA) and observed by fluorescence microscopy using Zeiss Apotome 2 (Software; Axiovision 4.8, Baden-Württemberg, Germany) and CELENA X (Logos Biosystems, Annandale, VA).
Cells with SOD1 aggregation were counted in the fluorescent images. Depending on the intensity of SOD1, cells with SOD1 aggregates were counted in randomly selected fields and quantified as a percentage to the total cells counted. In addition, to calculate the colocalization of the three colors of SOD1, we counted the cells where the three colored images overlapped at a point of high intensity. […]
Fig. S1. […] After incubation, cells were fixed with 4 % PFA and observed under the fluorescence microscope. […]

[7] = molecular target: CYP2C19 (Homo sapiens, UniProt P33261)
CYP2C19, sequence (P33261 whole entry): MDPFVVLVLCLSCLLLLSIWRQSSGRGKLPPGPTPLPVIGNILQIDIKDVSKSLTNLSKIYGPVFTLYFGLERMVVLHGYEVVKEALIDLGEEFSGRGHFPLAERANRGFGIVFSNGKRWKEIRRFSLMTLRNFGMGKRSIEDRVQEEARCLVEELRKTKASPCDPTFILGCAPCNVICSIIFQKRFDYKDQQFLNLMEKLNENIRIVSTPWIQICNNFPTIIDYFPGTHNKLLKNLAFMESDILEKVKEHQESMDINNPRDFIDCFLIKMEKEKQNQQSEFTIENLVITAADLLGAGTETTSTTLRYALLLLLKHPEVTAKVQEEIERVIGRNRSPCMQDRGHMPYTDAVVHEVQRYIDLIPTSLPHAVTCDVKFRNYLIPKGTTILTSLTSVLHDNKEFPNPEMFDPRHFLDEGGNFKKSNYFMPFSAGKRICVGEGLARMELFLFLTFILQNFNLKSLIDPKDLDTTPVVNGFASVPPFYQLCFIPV
Excerpt: (§4) Fig. S8. Preclinical data of PRG-A-04 a Plasma protein binding b CYP inhibition(direct) […]
(§5) d Mouse Brain Tissue penetration
(§6) For the convenience of calculation, […]

[8] = system: plasma proteins
Excerpt: as §4, §5, §6

[9] = Plasma stability; format: in vitro ADME; conditions: cynomolgus monkey plasma, after 120 min of incubation
[10] = system: CYP 3A; experiment: CYP inhibition (direct)
Excerpt: as §4, §5, §6

[11] = system: TDP-43 and WT-SOD1; experiment: WT-SOD1 and TDP-43 aggregation induced by ectopic TDP-43 expression in SK-N-SH cells; format: cell-based; conditions: TDP-43 overexpression
Excerpt: Cells with SOD1 inclusions (white arrows; strong intensity of SOD1) were counted and the percentages are shown with standard deviation. n = 3 independent experiments; two-tailed Student’s t-test. Scale bar, 10 μm. d, e PRG-A-04 reduced misfolding of MT-SOD1. d The affinity of misfolding-specific antibody to MT-SOD1 was inhibited by PRG-A-04. e Quantification of band intensity with Image J software. Mean ± SD. A.U., arbitrary units. *P < 0.05, **P < 0.01. f PRG-A-04 reduced the MT-SOD1 recombinant protein-induced increase of self-oligomerization in vitro. g WT-SOD1 and TDP-43 oligomerization induced by ectopic TDP-43 expression was abolished by PRG-A-04 treatment. h–k WT-SOD1 aggregation induced by ectopic TDP-43 expression was reduced by PRG-A-04 treatment. […] Scale bars, 10 μm. i PRG-A-04 reduced WT-SOD1 inclusions triggered by TDP-43 overexpression. Inclusion-positive cells (white arrows in h, strong intensity of SOD1) were counted and the percentages are shown as mean ± SD. j PRG-A-04 reduced the ratio of cells with cytoplasmic TDP-43 inclusions to tdtomato-positive ones. Cells with cytoplasmic TDP-43 (white arrows) among tdtomato positive ones were counted in randomly selected fields by photomicrographs and the cytosol/nucleus ratio was shown with ± SD. k PRG-A-04 reduced cytoplasmic TDP-43 inclusion. Mean ± SD. *P < 0.05, **P < 0.01, ***P < 0.005 […]

For `COc1cc(C=CCOC2Cc3cc4ccc(=O)oc4cc3OC2(C)C)ccc1[N+](=O)[O-]` (stereo not drawn) [PRG-A-04], the “extent of metabolism in liver microsomes” value [1] was “moderately metabolized; also recorded: metabolized significantly”, the “cytotoxicity” value [2] was “without severe cytotoxicity” and the “cytotoxicity” value [3] was “without severe cytotoxicity”. For the same compound, the AUC0-inf [4] was 1857.00 ng·h/mL, the AUC0-last [4] was 1826.50 ng·h/mL and the “C0 (or) Cmax” value [4] was 1272.33 ng/mL. For the same compound, the T1/2 [4] was 4.12 h, the “extent of metabolism in liver microsomes” value [5] was “moderately metabolized; also recorded: metabolized significantly” and the “effect on SOD1 inclusions” value [6] was “suppressed SOD1 inclusions”. For the same compound, the IC50 [7] was 4.75 µM, the “% Bound” value ([8]; Dog plasma, concentration 0.2 uM) was greater than 99.93% and the “% Bound” value ([8]; Dog plasma, concentration 2 uM) was 99.95%. For the same compound, the “% Bound” value ([8]; Dog plasma, concentration 10 uM) was 99.92%, the “% Bound” value ([8]; Human plasma, concentration 0.2 uM) was greater than 99.92% and the “% Bound” value ([8]; Human plasma, concentration 2 uM) was 99.97%. The “% Bound” value ([8]; Human plasma, concentration 10 uM) was 99.97%, the “% Bound” value ([8]; Monkey plasma, concentration 0.2 uM) was greater than 99.94% and the “% Bound” value ([8]; Monkey plasma, concentration 2 uM) was 99.93%. For the same compound, the “% Bound” value ([8]; Monkey plasma, concentration 10 uM) was 99.89%, the “% Bound” value ([8]; Mouse plasma, concentration 0.2 uM) was 99.91% and the “% Bound” value ([8]; Mouse plasma, concentration 2 uM) was 99.92%. The “% Bound” value ([8]; Mouse plasma, concentration 10 uM) was 99.87%, the “% Bound” value ([8]; Rat plasma, concentration 0.2 uM) was 99.9% and the “% Bound” value ([8]; Rat plasma, concentration 2 uM) was 99.91%. For the same compound, the “% Bound” value ([8]; Rat plasma, concentration 10 uM) was 99.86%, the “stability in plasma” value [9] was “stable” and the IC50 [10] was greater than 10 µM. For the same compound, the IC50 ([10]; read-out: IC50, DI, CYP 3A(midazolam), direct inhibition) was greater than 10 µM, the “cytosolic mislocalization of TDP-43” value [11] was “significantly reduced” and the “effect on TDP-43 and SOD1 aggregation” value [11] was “inhibitory effect on TDP-43 and SOD1 aggregation”.
